Reference: patent US8426606B2, “2′,2-bisthiazole non-nucleoside compounds, preparation methods, pharmaceutical compositions and uses as hepatitis virus inhibitors thereof” (Shanghai Institute of Materia Medica, Chinese Academy of …, priority 2010, dated 2013)
Where two headings read alike, the source gives them in different places.

Assays:
HCV (J399E) = assay: microbe, parasite or virus in culture; format: cell-based, Hepatitis C Virus; conditions: for IC50: Hepatitis C virus, Huh-7.5.1, 72 h, read-out: IC50 (concentration at which 50% of the replication of HCV was inhibited); for SI (bioactivity selective index): anti-HCV, Huh7.5.1 cells
Protocol: The variation of the green fluorescence intensity was recorded on a microplate reader and cytotoxicity was measured at the same time, so as to evaluate the influence of the compound on the replication activity of HCV.
Compounds to be tested were dissolved in DMSO to prepare a stock solution before the test. Upon using, the stock solution was diluted to a desired concentration with DMEM (Dulbecco's Modified Eagle Media, purchased from GibcoBRL company (Life Technologies, Grand Island, N.Y., USA)) containing 10% FBS (fetal bovine serum, purchased from Hyclone company (Logan, Utah, USA)).
Positive control: ribavirin (purchased from Sigma/Aldrich). It was dissolved in DMSO to prepare a stock solution and stored at −20° C. before use, and diluted to a desired concentration upon using.
(§1) Huh7.5.1 cells (10% FBS, DMEM) at the concentration of 10^5 cells/ml were inoculated on a 96-well plate (Costar 3904) with 100 μl per well. 24 hours later, the supernatant of culture was sucked out, and 50 μl of virus supernatant with MOI=0.1 was added. 8 hours later, 50 μl of the testing drug was added and 100 μl of culture medium was supplemented. After incubation for 72 hours, the supernatant was sucked out, and read on a fluorescent microplate reader (Ex=488 nm, Em=516 nm). Then each well was added with 20 μl of MTT (5 mg/ml) and additional 50 μl of culture medium. 4 hours later, 100 μl of MTT lysis solution was added. 6 hours later, reading was performed at a wavelength of 570 nm.

in vitro = format: cell-based; conditions: human
Protocol: The anti-HCV activity assay was performed by using Huh7.5.1 cells (donated by WUHAN INSTITUTE of VIROLOGY, CHINESE ACADEMY OF SCIENCES) infected by HCV (J399E) inserted with enhanced green fluorescent protein (EGFP). The variation of the green fluorescence intensity was recorded on a microplate reader and cytotoxicity was measured at the same time, so as to evaluate the influence of the compound on the replication activity of HCV.
as §1

[1] = In vivo pharmacokinetic studies in rats (intragastric and intravenous); parameters: species or system SD rats; conditions: rat; for bioavailability: plasma, po, male SD rats, 20 mg/kg intragastric, dosage normalized, calculated according to AUC0-t
Protocol: (§2) Intragastric Administration Three healthy male SD rats having body weights of 200 g to 250 g were administered with a specimen drug with a dosage of 20 mg/kg and a volume of 10 ml/kg. The rats were fasted for 12 hours before administration and had the freedom to drink water. The venous blood with a volume of 0.3 ml was obtained from the retrobulbar venous plexus of the rats at 0.25 h, 0.5 h, 1.0 h, 2.0 h, 3.0 h, 4.0 h, 5.0 h, 7.0 h, 9.0 h and 24 h after the administration, put in a heparinized tube, and centrifuged for 10 minutes at 3500 rpm to separate the plasma, which was stored at −20° C. to be tested.
as §2, with “Intravenous Injection: Three healthy” for “Intragastric Administration Three healthy”, “dosage of 10 mg/kg and” for “dosage of 20 mg/kg and”, “volume of 5.0 ml/kg. The” for “volume of 10 ml/kg. The”, “rats at 5 min, 15 min, 0.5 h,” for “rats at 0.25 h, 0.5 h,”, “heparinized tube, centrifuged for” for “heparinized tube, and centrifuged for”

[2] = Cytotoxicity on HepG2.2.15 cells (MTT assay); format: cell-based, Human; conditions: human, read-out: CC50 (concentration at which 50% of cells was killed)
Protocol: (§3) The anti-HBV activity assay of a specimen compound was performed in HepG2.2.15 cells stably transformed with the whole genome of HBV, including the determination of the cytotoxicity of the specimen compound (CC50) and the effect of the specimen compound on the replication level of HBV-DNA (IC50).
(§4) The Human hepatoma carcinoma cell HepG2.2.15 cell line stably transformed with the whole genome of HBV can stably secrete hepatitis B virosomes (containing DNA) in the supernatant of culture during culture. Both the antiviral activity and the cytotoxicity of the specimen drugs may be determined by detecting the amount of virus DNA secreted into the supernatant of culture by the cells under the intervention of an antiviral drug, in reference to the amount in control group that is the absence of the antiviral drug. A real-time fluorescent quantitation PCR assay was adopted to determine the concentration of a specimen drug at which 50% of the replication of HBV-DNA was inhibited (IC50), and a MTT assay was adopted to determine the concentration of a specimen drug at which 50% cytotoxicity occurs (CC50).
(§5) HepG2.2.15 cells were inoculated on a 96-well plate at 5×10^5 cells/ml. On the second day, the specimen drug was added. After the culture medium and the specimen drug having the same concentration as above were replaced periodically, on the eighth day, the supernatant of culture was collected to be tested. To the cells on the 96-well plate, MTT (5 mg/ml) is added. 4 hours later, MTT lysis solution was added (100 μl/well). The next day, OD570 was read on a microplate reader. The cytotoxicity of the specimen drug on HepG2.2.15 cells, the influence of specimen drug on cell growth, and the concentration of specimen drug at which 50% of cells were killed (CC50) were calculated in accordance with the OD value.

HBV = assay: Anti-HBV activity assay: HBV-DNA replication in HepG2.2.15 cells, fluorescent quantitation PCR of culture supernatant; format: cell-based, Hepatitis B Virus; conditions: for IC50: HBV-DNA in supernatant on the eighth day, read-out: IC50 (concentration at which 50% of the replication of HBV was inhibited); for SI (bioactivity selective index): anti-HBV
Protocol: as §3, §4
The specimen drug was prepared into a solution having a concentration (400 μM) desired for the experiment before use. Six diluted concentrations were tested for each specimen drug. The clinical anti-hepatitis B virus drug Lamivudine was used as the positive control in experiment so as to determine whether the reaction is normal or not in each experiment.
as §5
A proper amount of the supernatant of culture was added into an isovolumic virus extract and mixed uniformly. The resulted mixture was boiled, and then centrifuged for 5 minutes at 10,000 rpm at room temperature. A proper amount of the obtained supernatant was used to perform PCR amplification, and meanwhile four standard samples of HBV-DNA were set up to make a standard curve. The inhibition of each specimen drug at various concentrations against the replication of HBV-DNA was calculated according to the detected replication value of the viral DNA, and then the half inhibition of the specimen drug was calculated to obtain its IC50.

HepG2.2.15 cells = assay: Cytotoxicity on HepG2.2.15 cells (MTT assay); format: cell-based, Human; conditions: read-out: CC50 (concentration at which 50% of cells was killed)
Protocol: as §3, §4, §5

Structure (SMILES)	IC50 (HCV (J399E))	SI (bioactivity selective index) (HCV (J399E))	CC50 at 72 h (in vitro)	bioavailability [1]	CC50 at 6 days [2]	IC50 (HBV; Hepatitis B virus)	SI (bioactivity selective index) (HBV)	average oral bioavailability ([1]; in vivo, 10 mg/kg)	CC50 (HepG2.2.15 cells)	IC50 (HBV)
NC(=O)c1ncn([C@@H]2O[C@H](CO)[C@@H](O)[C@H]2O)n1 [Ribavirin, ribavirin, reference compound]	72.4 µM	>2.8	> 200 µM	–	–	–	–	–	–	–
CC(C)=Cc1sc(-c2nccs2)nc1C(=O)NCc1ccc(F)cc1 [Compound 373, N-(p-fluorobenzyl)-5-[1-(2-methylpropenyl)]-2′,2-bisthiazole-4-formamide]	5.7 µM	14.9	85 µM	6.9%	> 100 µM	0.9 µM	>111.1	–	–	–
CC(C)Cc1sc(-c2nccs2)nc1C(=O)NCc1ccc(F)cc1 [Compound W28F, N-parafluorobenzyl-5-isobutyl-2′,2-bithiazole-4-formamide, reference compound]	–	–	–	–	–	–	–	2.80%	> 33.3 µM	2.6 µM
Cc1cnc(-c2nc(C(=O)NCc3ccc(F)cc3)c(C(O)C(C)C)s2)s1 (centres unmarked) [Me-391-1, N-(p-fluorobenzyl)-5′-methyl-5-(1-hydroxy-2-methylpropyl)-2′,2-bisthiazole-4-formamide]	3.7 µM	>9	> 33.3 µM	–	> 33.3 µM	2.9 µM	>11.5	–	–	–
CC(C)(O)Cc1sc(-c2nccs2)nc1C(=O)NCc1ccc(F)cc1 [Compound 391-2, N-(p-fluorobenzyl)-5-(2-hydroxy-2-methylpropyl)-2′,2-bisthiazole-4-formamide]	21.3 µM	6.3	134 µM	76.5%	> 100 µM	5.4 µM	>18.5	–	–	–
CC(C)C(F)c1sc(-c2nccs2)nc1C(=O)NCc1ccc(F)cc1 (centres unmarked) [Compound 393-1, N-(p-fluorobenzyl)-5-(1-fluoro-2-methylpropyl)-2′,2-bisthiazole-4-formamide]	7.4 µM	5.5	40.9 µM	–	> 33.3 µM	< 0.41 µM	>81	–	–	–
Cc1cnc(-c2nc(C(=O)NCc3ccc(F)cc3)c(C(F)C(C)C)s2)s1 (centres unmarked) [Me-393-1, N-(p-fluorobenzyl)-5′-methyl-5-(1-fluoro-2-methylpropyl)-2′,2-bisthiazole-4-formamide]	6.6 µM	>15.2	> 100 µM	–	> 100 µM	0.2 µM	>500	–	–	–
C/C(=C\c1sc(-c2nccs2)nc1C(=O)NCc1ccc(F)cc1)CO [Compound 389, N-(p-fluorobenzyl)-5-[1-(3-hydroxy-2-methylpropenyl)]-2′,2-bisthiazole-4-formamide]	6.6 µM	11.6	76.5 µM	–	> 100 µM	30.2 µM	>3.3	–	–	–
CC(C)=Cc1sc(-c2ncc(C)s2)nc1C(=O)NCc1ccc(F)cc1 [Me-373, N-(p-fluorobenzyl)-5′-methyl-5-[1-(2-methylpropenyl)]-2′,2-bisthiazole-4-formamide]	17.4 µM	3.8	66.6 µM	–	> 100 µM	1.1 µM	>90.9	–	–	–
Nc1ccn([C@@H]2CS[C@H](CO)O2)c(=O)n1 [Lamivudine, reference compound]	–	–	–	–	> 5 µM	< 0.16 µM	>32	–	–	–
CC(C)C(O)c1sc(-c2nccs2)nc1C(=O)NCc1ccc(F)cc1 (centres unmarked) [Compound 391-1, N-(p-fluorobenzyl)-5-(1-hydroxy-2-methylpropyl)-2′,2-bisthiazole-4-formamide]	10.2 µM	4.8	48.6 µM	–	34 µM	1.63 µM	20.9	–	–	–
CC(C)(F)Cc1sc(-c2nccs2)nc1C(=O)NCc1ccc(F)cc1 [Compound 393-2, N-(p-fluorobenzyl)-5-(2-fluoro-2-methylpropyl)-2′,2-bisthiazole-4-formamide]	1.5 µM	>22.2	> 33.3 µM	–	> 33.3 µM	0.41 to 33.3 µM	<81	–	–	–
C/C(=C\c1sc(-c2nccs2)nc1C(=O)NCc1ccc(F)cc1)CF [Compound 391-F, N-(p-fluorobenzyl)-5-[1-(2-fluoromethylpropenyl)]-2′,2-bisthiazole-4-formamide]	6.5 µM	13.0	84.7 µM	–	> 100 µM	12.5 µM	>8	–	–	–
COC(c1sc(-c2nccs2)nc1C(=O)NCc1ccc(F)cc1)C(C)C (centres unmarked) [Compound 405-1, N-(p-fluorobenzyl)-5-(1-methoxy-2-methylpropyl)-2′,2-bisthiazole-4-formamide]	3.7 µM	5.8	21.4 µM	–	> 33.3 µM	2.6 µM	>12.8	–	–	–
CC(CO)Cc1sc(-c2nccs2)nc1C(=O)NCc1ccc(F)cc1 (centres unmarked) [Compound 391-3, N-(p-fluorobenzyl)-5-(3-hydroxy-2-methylpropyl)-2′,2-bisthiazole-4-formamide]	9.9 µM	2.8	28.1 µM	–	> 100 µM	< 0.41 µM	>243.9	–	–	–
